Experimental data from US20180140637A1, “EPIDERMAL NEURAL CREST STEM CELLS AS A SOURCE OF SCHWANN CELLS” (priority 2015, published 2018).

Tests used:
[1] = target: SAPK2/p38 (Homo sapiens, UniProt Q16539); conditions: inhibitor of CK1 and ALK5; cited from earlier work
[2] = system: hEPI-NCSC; test: Differentiation of hEPI-NCSC into Schwann cells; format: cell-based, human
Procedure: hEPI-NCSC were seeded at 2,500-5,000 cells per CELLstart™-coated 35-mm culture plate and cultured at 36.8° C., 5% CO2 and 5% O2. At differentiation Day minus 3 (D-3), cells were placed in XP medium, which is NeuroCult XF medium (Stem Cell Technologies, Grenoble, France Cat# 05761) supplemented with 10 ng/ml rhFGF2 (R&D Systems, Abingdon, UK Cat# 233-FB), 20 ng/ml rhEGF (R&D Systems Cat# 236-EG), 1× ITS+3 (Sigma, Poole, UK Cat# 1-2771), 1% (v/v) FBS (HyClone, Thermo Fisher, Cramlington, UK Cat# SH30070.02), 1× GlutaMAX (Invitrogen, Cat# 35050-038), 1× Penicillin/Streptomycin (Sigma Cat# P0781) and 2.5 μg/ml Amphotericin B (Sigma Cat# A2942).
The cells in XP medium were treated with 500 ng/ml recombinant human sonic hedgehog (C2411) N-terminus (rhSHH) and 500 nM CHIR99021 for two days. At differentiation Day −1, the cells were subcultured. Cells were detached with TrypLE Select, centrifuged, and plated in XP medium at a density of 30,000 cells per 35 mm culture plate and 1,000 cells per poly-D-lysine and laminin-coated 13-mm diameter glass coverslip. The next day (differentiation Day 0), cells were cultured in Alpha-modified MEM in the presence of 10% FBS and 1 mM β-mercaptoethanol (βME) for 24 hours, which was followed by treatment with 35 ng/ml all-trans-retinoic acid according to the method of Dezawa et al (2001). At differentiation Day 3, the FBS concentration was reduced to 1%. Starting at differentiation Day 0, 10 μM SB431542 was added to the culture medium. Retinoic acid and SB431542 remained in the culture medium throughout the culture period. At Day 3, 10 ng/ml rhFGF2, 5 ng/ml recombinant human PDGF-BB (rhPDGF-BB), 5 μM forskolin, 200 ng/ml recombinant human neuregulin-1 (rhNRG) were added to the culture medium. The culture medium was exchanged every 48 hours.
At Day 0 of differentiation, cells were treated for 24 hours with β-mercaptoethanol, and all-trans-retinoic acid was added on differentiation Day 1 according to the method of Dezawa et al (2001). Neither the three-day treatment with retinoic acid, nor five days of exposure to retinoic acid were sufficient for differentiating hEPI-NCSC into Schwann cells as judged by cell morphology and marker expression. […] At Day 0, SB431542, an inhibitor of transforming growth factor-beta 1 (TGFβ1) activin receptor-like kinases (ALKs), was also added to the culture medium (FIG. 1). […] On Day 3, FGF2, PDGF-BB, forskolin, and neuregulin-1 were added.

[3] = system: endogenous Schwann cells (non-neuronal cells) of dorsal root ganglia (DRG) explants; test: Removal of non-neuronal cells from DRG explants; format: cell-based, rodent; conditions: for removal of endogenous Schwann cells from DRG explants: rodent DRG explants, camptothecin 20 μM three times for 48 hours each, data not shown
Procedure: (§1) Mice ([C57BL/6-TgN(ACTbEGFP)]Osb]; ‘green mice’) (Okabe et al, 1997) and rats were handled in accordance to protocols approved by the Animal Care Committee of Newcastle University (project licence 60/3876). Whole mount DRG explants from E15.5 Wistar rat embryos were dissected as described by Päiväläinen et al. (2008) and Liu et al. (2011). Dissociated DRG cultures from adult ‘green’ mice were prepared according to Malin et al (2007) and Johnson et al (2001). To remove non-neuronal cells, DRG explants were treated with camptothecin (20 μM) three times for 48 hours each, on Days 2-5, 6-8, and 13-15.
(§2) Co-cultures of hEPI-NCSC derived Schwann cells and rodent dorsal root ganglia (DRG) explants were prepared by first treating the DRG explants with camptothecin to eliminate non-neuronal cells. […] Neuronal toxicity of camptothecin has been documented previously (Bhanu and Kondapi, 2010).
Anti-human nuclear antibody immunofluorescence confirmed that all P-zero immunoreactive Schwann cells were of human origin (FIG. 7A-7C; pale blue fluorescence in original).

[4] = system: large diameter sensory neurons; test: Neuronal toxicity in DRG explants; format: cell-based, rodent
Procedure: as §1, §2

Sequence of SAPK2/p38 (Q16539 whole entry): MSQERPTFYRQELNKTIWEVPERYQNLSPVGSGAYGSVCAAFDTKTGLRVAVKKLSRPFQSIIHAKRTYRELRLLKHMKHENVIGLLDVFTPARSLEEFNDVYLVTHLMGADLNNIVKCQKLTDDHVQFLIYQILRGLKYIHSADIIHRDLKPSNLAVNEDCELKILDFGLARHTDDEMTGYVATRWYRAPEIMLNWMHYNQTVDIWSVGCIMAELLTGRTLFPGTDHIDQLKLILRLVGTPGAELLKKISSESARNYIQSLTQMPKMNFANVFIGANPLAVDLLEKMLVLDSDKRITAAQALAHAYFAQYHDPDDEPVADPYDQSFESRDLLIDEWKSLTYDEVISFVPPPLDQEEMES

With `NC(=O)c1ccc(-c2nc(-c3ccc4c(c3)OCCO4)c(-c3ccccn3)[nH]2)cc1` [D 4476, 4-[4-(2,3-Dihydro-1,4-benzodioxin-6-yl)-5-(2-pyridinyl)-1H-imidazol-2-yl]benzamide] as the compound, how does the “selectivity over SAPK2/p38” value [1] read?
Its value is “greater than 20 fold”.

Which results are given for `CC1=C(/C=C/C(C)=C/C=C/C(C)=C/C(=O)O)C(C)(C)CCC1` [Retinoic acid, all-trans-retinoic acid]?
deleterious effects to the cells ([2]; 35 ng/ml in the differentiation medium throughout the culture period): without any detectable deleterious effects to the cells; Schwann cell differentiation, judged by cell morphology and marker expression ([2]; retinoic acid treatment for 3 days): not conducive to highly efficient Schwann cell differentiation; Schwann cell differentiation, judged by cell morphology and marker expression ([2]; retinoic acid treatment for 5 days (data not shown)): not conducive to highly efficient Schwann cell differentiation

With `NC(=O)c1ccc(-c2nc(-c3ccc4c(c3)OCO4)c(-c3ccccn3)[nH]2)cc1` [SB 431542, 4-[4-(1,3-benzodioxol-5-yl)-5-(2-pyridinyl)-1H-imidazol-2-yl]benzamide] as the compound, how does the “effect on differentiation into Schwann cells” value ([2]; 10 μM throughout the differentiation period) read?
The value was “facilitated differentiation”.

Which “removal of endogenous Schwann cells from DRG explants” value [3] does the source give for `CC[C@@]1(O)C(=O)OCc2c1cc1n(c2=O)Cc2cc3ccccc3nc2-1` [camptothecin] here?
The value was “efficiently removed endogenous Schwann cells”.

What about the “non-neuronal cells in treated DRG explants” value ([3]; whole DRG explants from E15.5 rat embryos, camptothecin 20 μM) of the same compound?
The value was “clear of non-neuronal cells”.

What about the “toxicity to sensory neurons” value [4] of the same compound?
The value was “selectively toxic to large diameter sensory neurons”.

Which “removal of endogenous Schwann cells from DRG explants” value [3] does the source give for `Nc1ccn([C@@H]2O[C@H](CO)[C@@H](O)[C@@H]2O)c(=O)n1` [cytosine arabinoside] here?
Its value is “did not”.
